Source: patent US9921225B2, “Phenyl glyoxal probes” (The Scripps Research Institute, priority 2012, dated 2018)
Values joined by “and” are separate entries in the source; they are usually repeats but may differ in a detail not shown here. Identical values can stand only once. One block for each compound: values may come before it.

Assays:
[1] = target: T1, autodeiminated PAD4 (Homo sapiens, UniProt Q9UM07); assay: Biotin-PG limit of detection, streptavidin-HRP blot; conditions: Example 1; 20% TCA, 0.1 mM Biotin-PG, 37° C., 3 h
T1 sequence (Q9UM07 whole entry): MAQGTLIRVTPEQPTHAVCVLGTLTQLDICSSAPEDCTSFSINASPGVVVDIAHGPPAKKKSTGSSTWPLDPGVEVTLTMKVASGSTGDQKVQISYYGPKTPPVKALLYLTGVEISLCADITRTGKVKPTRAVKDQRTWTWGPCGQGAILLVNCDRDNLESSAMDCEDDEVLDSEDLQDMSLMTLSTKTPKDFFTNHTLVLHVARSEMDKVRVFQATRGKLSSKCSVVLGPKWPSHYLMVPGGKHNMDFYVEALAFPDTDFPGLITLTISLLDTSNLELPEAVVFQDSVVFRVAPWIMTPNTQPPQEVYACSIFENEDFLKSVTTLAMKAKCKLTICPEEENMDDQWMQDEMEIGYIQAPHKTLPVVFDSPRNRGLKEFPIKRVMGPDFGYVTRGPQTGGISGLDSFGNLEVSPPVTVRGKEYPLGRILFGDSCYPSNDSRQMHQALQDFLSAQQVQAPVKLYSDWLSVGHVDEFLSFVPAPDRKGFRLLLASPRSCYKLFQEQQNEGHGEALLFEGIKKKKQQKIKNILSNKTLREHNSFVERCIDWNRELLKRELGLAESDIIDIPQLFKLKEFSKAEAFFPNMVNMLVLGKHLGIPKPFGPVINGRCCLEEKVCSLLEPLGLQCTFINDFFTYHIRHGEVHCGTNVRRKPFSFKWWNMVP
Experimental: Biotin-PG Pulldown and Labeling—It was next set out to determine the utility of the biotin-tagged PG probe, Biotin-PG (FIG. 2), as a tool for labeling, isolating, and enriching citrullinated proteins. As with the Rh-PG probe, the LOD of this probe was first determined with respect to autodeiminated PAD4. For these studies, autodeiminated PAD4, prepared as described above, was diluted into 50 mM HEPES pH 8.0 to final concentrations of 1.6 μM, 0.16 μM, 16 nM, 1.6 nM, and 0.16 nM. These samples were then incubated at 37° C. for 3 h with 20% TCA and 0.1 mM Biotin-PG. Solutions were quenched, cooled on ice for 30 min, and centrifuged at 14,000 rpm for 15 min at 4° C. The supernatant was removed and samples were washed with cold acetone and dried at 100° C. for 5 min. Proteins were resuspended in 25 μL of 50 mM HEPES and boiled with 6×SDS loading dye and various amounts of protein (i.e., 1,000, 100, 10, 1, and 0.1 ng) loaded onto a 12% SDS-PAGE gel. Gel electrophoresis was performed at 200 V for 50 min and proteins were subsequently electrotransferred to nitrocellulose (tris-glycine buffer; 80 V; 70 min) and the membrane blocked with 5% BSA in PBS for 1 h at rt. After washing 2× with PBS (10 min), the blot was treated with streptavidin-HRP (1:20,000) in 5% BSA in PBS for 1 h at rt. […]

[2] = tested on: serum protein citrullination; assay: Rh-PG analysis of murine ulcerative colitis serum samples; format: in vivo, mouse; conditions: serum of DSS mice treated with Cl-amidine
Experimental: Rh-PG Analysis of Murine Ulcerative Colitis Serum Samples: Serum samples Cl-amidine efficacy in a mouse model of ulcerative colitis were obtained and analyzed by the Rh-PG method. Briefly, the protein concentration of serum samples was first obtained using a standard Lowry assay. A sample (2 mg/mL; 30 μL) of each serum sample (i.e., 14 total; 7 DSS; 7 DSS+Cl-amidine) was prepared in 50 mM HEPES and treated with 20% TCA and 0.1 mM Rh-PG for 30 min at 37° C. Samples were then quenched with citrulline, cooled, centrifuged, washed, and dried. After resuspending in 50 mM HEPES, samples were separated by SDS-PAGE (12%; 170 V; 50 min) and imaged on a Typhoon Imager (Ex. 532 nm; Em. 580 nm). Images were analyzed using ImageQuant 5.2 and correlation coefficients were determined using Microsoft Excel. These experiments were run in duplicate on different days. Subsequent statistical analysis was done using STATISTICA, utilizing two-tailed, independent student's t-tests to determine significance (i.e., P-value) between diseased and Cl-amidine treated samples. Correlation coefficients were calculated in Microsoft Excel, utilizing a table of critical values of Pearson's r with a degree of freedom value of 12 (n−2) to determine the significance (i.e., P-value) of the correlation between the fluorescence of a particular protein and a disease score.

[3] = tested on: DSS induced ulcerative colitis; conditions: cited from earlier work
[4] = target: T1, autodeiminated PAD4; assay: Rh-PG limit of detection, SDS-PAGE and fluorescent imaging; conditions: Example 1; 20% TCA, 0.1 mM Rh-PG, 37° C., 3 h; LOD defined as three times the noise
Experimental: The sensitivity of the probe was analyzed next (FIGS. 5A, 5B). Autodeiminated PAD4, prepared as described above, was diluted into 50 mM HEPES pH 8.0 to final concentrations of 1.6 μM, 0.16 μM, 16 nM, 1.6 nM, and 0.16 nM. To one set of samples was added 0.1 mM Rh-PG, and to a second set, 20% TCA and 0.1 mM Rh-PG. The samples were then incubated at 37° C. for 3 h. To TCA precipitate autodeiminated PAD4, the acidic solutions were cooled on ice for 30 min and then centrifuged at 14,000 rpm for 15 min at 4° C. The supernatant was removed and samples were washed with cold acetone and dried at 100° C. for 5 min. Proteins were resuspended in 25 μL of 50 mM HEPES. Both basic and acidic samples were then boiled with 6×SDS loading dye and various amounts of protein (i.e., 1000, 100, 10, 1, and 0.1 ng) loaded onto a 12% SDS-PAGE gel. Gel electrophoresis was performed at 170 V for 60 min and the gels analyzed on a Typhoon Imager (Ex. 532 nm; Em. 580 nm) (FIGS. 5A, 5B). […]
Rh-PG Limit of Detection: Citrullinated H3 and autodeiminated PAD4, prepared as described above, were diluted into 50 mM HEPES pH 7.6 to final concentrations of (2.2 μM, 0.22 μM, 22 nM, 2.2 nM, and 0.22 nM H3) and (0.16 μM, 16 nM, 1.6 nM, 0.16 nM, and 0.016 nM PAD4). […] Gel electrophoresis was performed at 170 V for 50 min and the gels analyzed on a Typhoon Imager (Ex. 532 nm; Em. 580 nm).

[5] = target: PAD4 (Homo sapiens, UniProt Q9UM07); assay: Steady-state kinetic assay of protein citrullination using Rh-PG; format: biochemical; conditions: recombinant huApoA1, Rh-PG readout
PAD4, sequence (Q9UM07 whole entry, species assumed): as the sequence (Q9UM07 whole entry) above

[6] = target: PAD2 (Homo sapiens, UniProt Q9Y2J8); assay: Kinetic characterization of ApoA1 as a PAD substrate using Rh-PG; format: biochemical; conditions: recombinant huApoA1, Rh-PG readout
PAD2, sequence (Q9Y2J8 whole entry, species assumed): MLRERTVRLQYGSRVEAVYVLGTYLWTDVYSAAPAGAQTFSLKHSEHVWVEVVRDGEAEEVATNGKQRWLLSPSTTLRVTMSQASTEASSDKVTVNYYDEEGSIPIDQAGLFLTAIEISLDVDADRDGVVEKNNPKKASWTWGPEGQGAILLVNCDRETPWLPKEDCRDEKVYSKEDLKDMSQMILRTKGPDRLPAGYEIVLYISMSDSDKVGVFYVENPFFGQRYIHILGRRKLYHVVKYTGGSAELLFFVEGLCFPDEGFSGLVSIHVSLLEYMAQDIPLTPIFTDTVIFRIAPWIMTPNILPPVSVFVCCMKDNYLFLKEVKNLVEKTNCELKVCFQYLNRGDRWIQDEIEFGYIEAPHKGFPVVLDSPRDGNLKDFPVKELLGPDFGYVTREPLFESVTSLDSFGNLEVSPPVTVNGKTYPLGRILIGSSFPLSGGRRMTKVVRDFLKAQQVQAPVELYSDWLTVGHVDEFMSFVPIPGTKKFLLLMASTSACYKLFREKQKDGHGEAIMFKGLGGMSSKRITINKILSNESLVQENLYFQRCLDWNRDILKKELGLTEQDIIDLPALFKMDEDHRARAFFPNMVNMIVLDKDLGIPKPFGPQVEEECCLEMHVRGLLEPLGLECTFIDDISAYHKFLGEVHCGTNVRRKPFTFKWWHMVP
Experimental: (§1) To verify that ApoA1 is the modified 25 kDa protein in the UC samples, anti-ApoA1 Western blotting of Biotin-PG pulldown samples was performed (FIG. 24A). […] To test human ApoA1 as a PAD substrate, recombinant huApoA1 was first treated ±PADs 1-4 and then analyzed with the Rh-PG probe (FIG. 24B). […] PADs 2, 3, and 4 also modified ApoA1, albeit to a lesser extent. To further evaluate citrullination of ApoA1, the steady state kinetic parameters were determined using Rh-PG.

[7] = target: T2, PAD3 (Homo sapiens, UniProt Q9ULW8); assay: as above; format: biochemical; conditions: recombinant huApoA1, Rh-PG readout
T2 sequence (Q9ULW8 1-664): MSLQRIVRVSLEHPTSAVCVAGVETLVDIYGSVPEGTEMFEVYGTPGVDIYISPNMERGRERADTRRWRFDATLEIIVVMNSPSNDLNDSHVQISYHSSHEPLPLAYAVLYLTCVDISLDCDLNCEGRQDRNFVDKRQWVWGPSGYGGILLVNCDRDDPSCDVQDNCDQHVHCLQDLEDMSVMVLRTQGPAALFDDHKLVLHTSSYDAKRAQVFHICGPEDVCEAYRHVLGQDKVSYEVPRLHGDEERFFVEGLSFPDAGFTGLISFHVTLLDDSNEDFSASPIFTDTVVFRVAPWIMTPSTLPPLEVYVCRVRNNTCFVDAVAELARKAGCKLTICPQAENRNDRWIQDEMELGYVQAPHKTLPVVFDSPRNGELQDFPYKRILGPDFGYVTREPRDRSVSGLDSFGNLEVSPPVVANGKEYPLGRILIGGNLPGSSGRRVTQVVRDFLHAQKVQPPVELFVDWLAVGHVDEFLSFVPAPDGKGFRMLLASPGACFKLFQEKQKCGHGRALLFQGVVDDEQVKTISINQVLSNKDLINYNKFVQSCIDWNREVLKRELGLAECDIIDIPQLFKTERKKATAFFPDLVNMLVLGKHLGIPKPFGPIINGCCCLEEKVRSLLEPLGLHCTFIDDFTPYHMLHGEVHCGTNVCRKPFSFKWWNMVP
Experimental: as §1

[8] = group average, Group 8 WT, 2% DSS + Cl-Amidine @ 75 mg/kg
[9] = individual mice, Group 8 WT, 2% DSS + Cl-Amidine @ 75 mg/kg

limit of detection of Biotin-PG probe, autodeiminated PAD4 [1]: 100 ng
Compound: O=CC(=O)c1cccc(NC(=O)CCn2cc(CCCC(=O)NCCNC(=O)CCCC[C@@H]3SC[C@@H]4NC(=O)N[C@@H]43)nn2)c1 [Biotin-PG]

Compound: NC(=O)[C@H](CCCN=C(N)CCl)NC(=O)c1ccccc1 [Cl-amidine]
effect on global citrullination (whole lane) [2]: significantly decreases global citrullination
disease severity ([3]; DSS mouse model of ulcerative colitis, previous study (Chumanevich 2011)): reduces disease severity
Colon Length, Average [3, 8]: 8.1 cm
Inflam. Score, Average [3, 8]: 14.6
Lym, Average [3, 8]: 8.2 m/mm^3
WBC, Average [3, 8]: 13.7 m/mm^3
Weight (end), Average [3, 8]: 23.3 g
Weight Diff., Average [3, 8]: 0.7 g
Colon Length [3, 9]: 7.6 cm (2×) and 8.1 cm and 8.2 cm and 8.6 cm and 8 cm and 8.4 cm
Inflam. Score [3, 9]: 14 (2×) and 24 and 12 (2×) and 10 and 16
Lym [3, 9]: 5.68 m/mm^3 and 3.87 m/mm^3 and 11.35 m/mm^3 and 9.4 m/mm^3 and 6.87 m/mm^3 and 9.35 m/mm^3 and 10.83 m/mm^3
WBC [3, 9]: 9.75 m/mm^3 and 9.08 m/mm^3 and 18.14 m/mm^3 and 15.12 m/mm^3 and 11.46 m/mm^3 and 15.91 m/mm^3 and 16.41 m/mm^3
Weight Diff. [3, 9]: 0.8 g (2×) and 0.15 g and 1.3 g and 0.5 g and 0.7 g and 0.3 g
Weight (end) ([3]; individual mice, Group 8 WT, 2% DSS + Cl-Amidine @ 75 mg/kg, in g): 23.4 and 22.05 and 22.7 and 24.1 and 25 and 22.5 and 23.6

limit of detection (LOD) of Rh-PG probe labeling of autodeiminated PAD4 [4]: 1 ng
Compound: CC(C(=O)Nc1cccc(C(=O)C=O)c1)n1cc(CNC(=O)c2ccc3c(c2)C2(OC3=O)c3ccc(N(C)C)cc3Oc3cc(N(C)C)ccc32)nn1 (stereo not shown) [Rh-PG, N-(3-Glyoxyl)phenylamino)propionyl)-1H-1,2,3-triazol-4-yl)methyl-5(6)-carboxamidotetramethyl rhodamine hydrate]

substrate quality for PAD4 [5]: modest substrate
substrate quality for PAD2 [6]: modest substrate
substrate quality for PAD3 [7]: modest substrate
Compound: ApoA1: apolipoprotein-A1, a key component of High Density Lipoprotein; recombinant huApoA1 tested as PAD substrate
